From ChEMBL document CHEMBL1201862, “PubChem BioAssay data set” (2004)
Activity calls are given as the source filed them.

How the values were obtained:
[1] = Counterscreen for inhibitors of Trypanosoma brucei methionyl tRNA synthetase (MetRS): Luminescence-based cell-based high throughput dose response assay to identify compounds that are cytotoxic to Jurkat human T lymphocyte cells.; type: functional
[2] = target: T1, Methionyl-tRNA synthetase, putative (Trypanosoma brucei brucei, UniProt Q38C91); type: functional, Trypanosoma brucei brucei strain 927/4 GUTat10.1
T1 sequence (Q38C91 whole entry): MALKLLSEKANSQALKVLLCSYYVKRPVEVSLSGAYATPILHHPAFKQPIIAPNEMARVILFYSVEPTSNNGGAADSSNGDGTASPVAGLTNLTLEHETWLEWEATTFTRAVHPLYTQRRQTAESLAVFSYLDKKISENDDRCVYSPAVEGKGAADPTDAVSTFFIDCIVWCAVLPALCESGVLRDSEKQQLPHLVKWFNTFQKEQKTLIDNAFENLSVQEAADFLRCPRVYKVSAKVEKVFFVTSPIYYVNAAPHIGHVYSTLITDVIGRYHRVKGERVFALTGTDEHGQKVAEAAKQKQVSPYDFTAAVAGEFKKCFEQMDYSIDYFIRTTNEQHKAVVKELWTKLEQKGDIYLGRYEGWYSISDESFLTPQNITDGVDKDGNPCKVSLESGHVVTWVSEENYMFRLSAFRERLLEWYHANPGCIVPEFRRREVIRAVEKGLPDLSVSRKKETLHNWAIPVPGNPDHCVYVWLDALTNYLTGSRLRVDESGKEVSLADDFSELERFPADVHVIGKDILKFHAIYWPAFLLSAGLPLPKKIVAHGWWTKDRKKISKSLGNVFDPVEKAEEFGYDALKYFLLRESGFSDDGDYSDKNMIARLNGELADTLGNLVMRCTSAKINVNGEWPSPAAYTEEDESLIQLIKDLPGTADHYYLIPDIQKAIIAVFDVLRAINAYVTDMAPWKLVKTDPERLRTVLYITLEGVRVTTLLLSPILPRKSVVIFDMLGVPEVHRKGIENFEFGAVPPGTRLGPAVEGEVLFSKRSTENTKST

[3] = target: T1, Methionyl-tRNA synthetase, putative; type: functional, Trypanosoma brucei brucei strain 927/4 GUTat10.1; remark: listed apart in the source
[4] = target: T2, Trace amine-associated receptor 1 (Homo sapiens, UniProt Q96RJ0); experiment: Fluorescence-based cell-based high throughput dose response assay to identify agonists of the human trace amine associated receptor 1 (TAAR1).; type: functional
T2 sequence (Q96RJ0 whole entry): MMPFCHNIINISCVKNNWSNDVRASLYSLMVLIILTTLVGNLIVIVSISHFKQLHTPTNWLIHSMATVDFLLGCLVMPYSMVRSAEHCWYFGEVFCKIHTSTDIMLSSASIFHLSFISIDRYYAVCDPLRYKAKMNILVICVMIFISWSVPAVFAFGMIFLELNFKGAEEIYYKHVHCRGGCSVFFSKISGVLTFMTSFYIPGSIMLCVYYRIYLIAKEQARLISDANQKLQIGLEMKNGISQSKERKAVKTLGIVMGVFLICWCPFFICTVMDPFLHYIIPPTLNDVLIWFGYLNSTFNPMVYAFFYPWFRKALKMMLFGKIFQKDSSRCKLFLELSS

[5] = target: T2, Trace amine-associated receptor 1; experiment: Counterscreen for agonists of the human trace amine associated receptor 1 (hTAAR1): Fluorescence-based cell-based high throughput dose response assay to identify hTAAR1 agonist that also desensitize TAAR1 receptor response.; type: functional
cells [6] = type: functional, cell-based
cells [7] = type: functional, cell-based; remark: listed apart in the source
[8] = target: T3, Rac GTPase-activating protein 1 (Homo sapiens, UniProt Q9H0H5); experiment: blockers of MgcRacGAP-driven Rac1 GTP hydrolysis – biochemical, ADP Hunter fluorescence, primary and confirmatory, confirmation (AID 624330); type: functional
T3 sequence (Q9H0H5 whole entry): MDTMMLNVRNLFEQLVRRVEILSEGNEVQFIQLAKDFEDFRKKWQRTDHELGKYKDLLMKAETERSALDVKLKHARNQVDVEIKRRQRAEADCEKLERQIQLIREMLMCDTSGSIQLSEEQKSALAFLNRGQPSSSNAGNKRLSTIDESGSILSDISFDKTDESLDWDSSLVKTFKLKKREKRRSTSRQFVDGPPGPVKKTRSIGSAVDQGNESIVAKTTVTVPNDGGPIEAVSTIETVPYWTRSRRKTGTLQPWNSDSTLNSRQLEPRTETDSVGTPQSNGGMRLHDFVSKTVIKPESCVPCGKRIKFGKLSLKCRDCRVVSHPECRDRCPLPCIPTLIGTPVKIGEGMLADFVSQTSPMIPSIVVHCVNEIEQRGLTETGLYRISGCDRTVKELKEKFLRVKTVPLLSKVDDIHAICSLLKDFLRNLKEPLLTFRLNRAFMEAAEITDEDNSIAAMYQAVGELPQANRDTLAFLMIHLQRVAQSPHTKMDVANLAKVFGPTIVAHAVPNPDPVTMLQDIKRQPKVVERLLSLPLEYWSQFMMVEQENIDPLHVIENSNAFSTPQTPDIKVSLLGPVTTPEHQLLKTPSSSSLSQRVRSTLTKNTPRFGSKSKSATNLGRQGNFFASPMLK

[9] = bead-based luminescence quenchers, dual-tagged ARNT – biochemical, AlphaScreen, cherry-pick, artefact control for ARNT-TACC3 interaction inhibitor project, dose response (AID 651705); type: functional;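 note: AlphaScreen bead proximity signal that flags compounds interfering with the detection technology; potency reflects signal decrease which marks the compound as an assay artifact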
[10] = target: T4, Nuclear receptor subfamily 0 group B member 1 (Homo sapiens, UniProt P51843); type: functional, cell-based;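 note: HEK293T cells transfected with SF-1 and DAX-1 plus StAR promoter luciferase reporter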
T4 sequence (P51843 whole entry): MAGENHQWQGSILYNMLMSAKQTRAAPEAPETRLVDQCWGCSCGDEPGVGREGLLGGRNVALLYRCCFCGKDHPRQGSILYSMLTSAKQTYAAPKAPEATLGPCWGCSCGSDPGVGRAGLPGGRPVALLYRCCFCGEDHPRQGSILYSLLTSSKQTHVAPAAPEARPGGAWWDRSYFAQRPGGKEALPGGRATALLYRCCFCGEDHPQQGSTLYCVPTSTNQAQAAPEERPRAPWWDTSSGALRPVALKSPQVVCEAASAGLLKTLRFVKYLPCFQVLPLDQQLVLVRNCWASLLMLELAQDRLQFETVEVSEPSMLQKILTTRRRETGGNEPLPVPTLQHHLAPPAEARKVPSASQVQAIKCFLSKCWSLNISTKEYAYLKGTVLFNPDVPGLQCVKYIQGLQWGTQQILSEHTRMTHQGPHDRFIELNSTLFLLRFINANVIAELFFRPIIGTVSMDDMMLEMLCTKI

cells [11] = type: functional, cell-based; remark: listed apart in the source
fMet-Leu-Phe receptor = target: T5, fMet-Leu-Phe receptor (Homo sapiens, UniProt P21462); experiment: formyl peptide receptor binders – dose response (AID 519); type: functional
T5 sequence (P21462 whole entry): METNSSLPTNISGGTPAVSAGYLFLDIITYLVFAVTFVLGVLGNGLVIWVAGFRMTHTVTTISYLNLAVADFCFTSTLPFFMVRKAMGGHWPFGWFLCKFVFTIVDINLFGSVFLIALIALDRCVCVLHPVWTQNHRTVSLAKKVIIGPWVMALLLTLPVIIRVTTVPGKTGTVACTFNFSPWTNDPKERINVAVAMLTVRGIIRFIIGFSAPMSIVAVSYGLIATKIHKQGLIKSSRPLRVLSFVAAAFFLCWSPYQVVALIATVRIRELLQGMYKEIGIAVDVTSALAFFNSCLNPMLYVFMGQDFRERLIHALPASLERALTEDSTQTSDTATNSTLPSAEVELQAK

Genome polyprotein = Genome polyprotein (dengue virus type 2, UniProt P29990); experiment: flavivirus cap methylation enzyme inhibition – biochemical, confirmation dose response, primary screen (AID 588689); type: functional
Genome polyprotein, sequence (P29990 2492-3391 limits assumed): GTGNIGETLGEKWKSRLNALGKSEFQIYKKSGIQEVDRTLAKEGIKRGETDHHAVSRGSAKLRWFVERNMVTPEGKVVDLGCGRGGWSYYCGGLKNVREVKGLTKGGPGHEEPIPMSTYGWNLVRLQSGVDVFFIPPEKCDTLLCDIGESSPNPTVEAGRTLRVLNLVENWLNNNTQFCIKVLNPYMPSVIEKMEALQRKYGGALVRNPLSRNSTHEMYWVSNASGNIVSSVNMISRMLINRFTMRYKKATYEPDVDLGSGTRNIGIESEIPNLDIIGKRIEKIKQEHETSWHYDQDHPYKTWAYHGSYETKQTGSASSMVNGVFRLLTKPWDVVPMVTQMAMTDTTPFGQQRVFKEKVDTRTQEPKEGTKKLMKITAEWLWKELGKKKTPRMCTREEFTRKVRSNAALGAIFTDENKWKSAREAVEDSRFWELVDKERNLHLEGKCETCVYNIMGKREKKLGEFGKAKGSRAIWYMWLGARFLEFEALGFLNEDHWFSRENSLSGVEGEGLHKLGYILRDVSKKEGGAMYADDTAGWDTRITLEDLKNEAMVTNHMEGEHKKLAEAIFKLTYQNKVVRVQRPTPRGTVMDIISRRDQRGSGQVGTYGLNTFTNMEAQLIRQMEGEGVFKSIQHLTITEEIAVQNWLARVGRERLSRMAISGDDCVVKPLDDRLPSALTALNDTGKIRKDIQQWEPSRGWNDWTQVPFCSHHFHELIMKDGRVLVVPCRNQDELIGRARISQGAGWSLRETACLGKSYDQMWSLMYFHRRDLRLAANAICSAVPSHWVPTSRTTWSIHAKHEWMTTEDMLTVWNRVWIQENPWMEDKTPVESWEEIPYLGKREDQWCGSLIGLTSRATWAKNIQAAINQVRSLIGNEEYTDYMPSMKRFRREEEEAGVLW

Leucine aminopeptidase = target: T6, Leucine aminopeptidase (Plasmodium falciparum 3D7, UniProt Q8IL11); experiment: P. falciparum M17LAP inhibitors, primary screen, biochemical, fluorogenic H-Leu-NHMec substrate, 1536-well (AID 1619); type: functional
T6 sequence (Q8IL11 whole entry): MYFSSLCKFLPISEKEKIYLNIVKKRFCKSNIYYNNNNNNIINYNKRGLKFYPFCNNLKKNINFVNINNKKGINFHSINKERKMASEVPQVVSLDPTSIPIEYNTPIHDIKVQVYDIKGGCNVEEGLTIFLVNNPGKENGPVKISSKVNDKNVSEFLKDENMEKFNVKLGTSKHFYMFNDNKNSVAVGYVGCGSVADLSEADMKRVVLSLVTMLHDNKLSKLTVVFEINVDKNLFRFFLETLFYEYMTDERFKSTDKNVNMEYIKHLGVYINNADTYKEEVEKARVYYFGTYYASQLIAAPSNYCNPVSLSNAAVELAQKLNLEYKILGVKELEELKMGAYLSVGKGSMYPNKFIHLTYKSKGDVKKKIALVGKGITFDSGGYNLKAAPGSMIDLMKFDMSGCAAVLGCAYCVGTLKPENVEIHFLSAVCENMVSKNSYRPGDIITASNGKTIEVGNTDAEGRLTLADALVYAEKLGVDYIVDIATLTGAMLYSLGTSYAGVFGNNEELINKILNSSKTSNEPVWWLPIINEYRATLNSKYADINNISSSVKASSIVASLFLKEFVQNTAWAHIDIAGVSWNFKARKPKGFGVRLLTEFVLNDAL

Nonstructural protein 1 = Nonstructural protein 1 (Influenza A virus, UniProt Q194T2); type: functional, Influenza A virus (A/California/07/2009(H1N1))
Nonstructural protein 1, sequence (Q194T2 whole entry): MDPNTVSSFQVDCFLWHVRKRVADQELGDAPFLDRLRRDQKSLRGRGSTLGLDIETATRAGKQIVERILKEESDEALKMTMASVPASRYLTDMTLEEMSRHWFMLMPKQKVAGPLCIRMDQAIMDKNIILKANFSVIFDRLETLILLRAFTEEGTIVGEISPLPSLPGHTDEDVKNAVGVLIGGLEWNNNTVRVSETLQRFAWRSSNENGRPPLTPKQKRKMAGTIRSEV

[12] = activation of miR-122 Renilla sensor silencing – cell-based, Huh7 psiCHECK-miR122, Renilla luciferase, cherry-picked, dose response (AID 651956); type: functional;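 note: huh7 hepatoma cells stably carrying a psiCHECK-2 miR-122 sensor plasmid; renilla luciferase signal reporting endogenous miR-122 activity after 48 h compound exposure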
[13] = target: Ras and Rab interactor 1/Tyrosine-protein kinase ABL1 (Homo sapiens, UniProt P00519+Q13671); type: functional;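 note: biochemical TR-FRET dose-response test measuring inhibition of binding between Rin1 and Abl proteins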
Ras and Rab interactor 1/Tyrosine-protein kinase ABL1, sequence (P00519 whole entry): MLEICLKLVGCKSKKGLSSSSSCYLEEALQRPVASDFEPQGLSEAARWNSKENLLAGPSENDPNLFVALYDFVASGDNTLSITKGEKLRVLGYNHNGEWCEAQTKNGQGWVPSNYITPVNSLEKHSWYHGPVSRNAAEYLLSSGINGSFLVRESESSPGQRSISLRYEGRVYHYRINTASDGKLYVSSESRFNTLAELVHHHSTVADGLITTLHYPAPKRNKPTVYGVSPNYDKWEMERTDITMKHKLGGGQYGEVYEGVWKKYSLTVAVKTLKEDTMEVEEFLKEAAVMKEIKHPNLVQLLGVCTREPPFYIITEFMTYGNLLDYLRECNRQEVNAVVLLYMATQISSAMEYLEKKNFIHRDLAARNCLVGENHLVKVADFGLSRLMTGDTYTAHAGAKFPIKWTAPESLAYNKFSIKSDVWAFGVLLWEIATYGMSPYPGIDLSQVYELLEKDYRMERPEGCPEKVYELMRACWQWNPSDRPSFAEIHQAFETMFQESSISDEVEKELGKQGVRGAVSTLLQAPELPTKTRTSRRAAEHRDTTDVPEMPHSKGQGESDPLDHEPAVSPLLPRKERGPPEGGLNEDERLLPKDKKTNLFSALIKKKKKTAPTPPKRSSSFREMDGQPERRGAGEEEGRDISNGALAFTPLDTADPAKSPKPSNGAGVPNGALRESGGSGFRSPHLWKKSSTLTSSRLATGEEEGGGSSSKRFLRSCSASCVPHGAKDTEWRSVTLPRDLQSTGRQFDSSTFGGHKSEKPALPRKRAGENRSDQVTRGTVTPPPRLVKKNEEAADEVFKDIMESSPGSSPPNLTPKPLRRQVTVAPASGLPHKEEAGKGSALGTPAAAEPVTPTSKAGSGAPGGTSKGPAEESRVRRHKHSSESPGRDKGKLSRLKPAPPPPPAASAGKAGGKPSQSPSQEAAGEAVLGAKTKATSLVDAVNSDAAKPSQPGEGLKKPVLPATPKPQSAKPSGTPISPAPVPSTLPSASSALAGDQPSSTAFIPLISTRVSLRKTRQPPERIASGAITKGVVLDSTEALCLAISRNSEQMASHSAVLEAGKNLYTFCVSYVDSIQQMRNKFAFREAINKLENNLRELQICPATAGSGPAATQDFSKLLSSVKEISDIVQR
Ras and Rab interactor 1/Tyrosine-protein kinase ABL1, sequence (Q13671 whole entry): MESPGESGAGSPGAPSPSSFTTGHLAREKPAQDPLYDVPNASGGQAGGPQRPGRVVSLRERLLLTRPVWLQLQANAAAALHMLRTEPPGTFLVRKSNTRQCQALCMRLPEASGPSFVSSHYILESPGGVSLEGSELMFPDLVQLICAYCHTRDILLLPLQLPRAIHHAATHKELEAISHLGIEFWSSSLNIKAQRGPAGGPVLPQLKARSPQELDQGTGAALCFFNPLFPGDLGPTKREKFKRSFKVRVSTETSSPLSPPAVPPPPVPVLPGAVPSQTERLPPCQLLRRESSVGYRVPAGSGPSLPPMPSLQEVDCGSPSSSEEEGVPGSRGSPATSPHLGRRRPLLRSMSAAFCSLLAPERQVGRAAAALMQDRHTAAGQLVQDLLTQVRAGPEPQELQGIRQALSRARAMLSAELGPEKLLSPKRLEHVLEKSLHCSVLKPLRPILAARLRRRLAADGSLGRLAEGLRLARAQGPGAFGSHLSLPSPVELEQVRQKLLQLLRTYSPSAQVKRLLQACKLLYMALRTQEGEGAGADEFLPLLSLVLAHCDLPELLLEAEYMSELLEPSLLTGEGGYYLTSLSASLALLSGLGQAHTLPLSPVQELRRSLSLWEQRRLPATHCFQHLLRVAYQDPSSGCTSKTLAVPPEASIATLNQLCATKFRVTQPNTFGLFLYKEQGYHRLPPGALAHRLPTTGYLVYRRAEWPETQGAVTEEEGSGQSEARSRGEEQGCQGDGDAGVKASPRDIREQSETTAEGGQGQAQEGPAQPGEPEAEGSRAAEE

H4 = experiment: Luminescence Cell-Based Dose Response HTS to Identify Activators of 5'UTR Stem-Loop Driven Prion Protein mRNA Translation in H4 Neuroglioblastoma Cells. [Related pubchem assays: 1829 (Project Summary), 1814 (Primary HTS)]; type: functional; details: Homo sapiens
[14] = Luminescence Cell-Based Dose Response HTS to Identify Activators of Luciferase Translation or Activity in H4 […] Cells. [Related pubchem assays: 1829 (Project Summary), 1814 (Primary HTS)]; type: functional

With `Nc1cc(Oc2ccc(Cl)cc2Cl)nc(N)n1` the IC50 [1] was 83.2 µM (inactive), the IC50 [2] was 29.4 µM (inactive) and the IC50 [3] was 22.8 µM (inactive).
For `O=C(NCCc1ccccc1)C(c1ccncc1)N(C(=O)c1csnn1)C1CC1` (stereo not drawn), the EC50 [4] was 2.11 µM (active), the IC50 [5] was 7.59 µM (active) and the EC50 (cells [6]) was > 29.9 µM (inactive). The IC50 (cells [7]) was > 29.9 µM (inactive).
In the case of `CC(=O)Nc1ccc(Oc2nc(-c3ccccn3)nc3ccccc23)cc1`, the IC50 [8] is reported as 43.5 µM (active) and the AC50 [9] is reported as 106 µM (active).
For `CC(C)(C)C(=O)Nc1ccccc1C(=O)NCCCn1ccnc1`, the AC50 [9] was 131 µM (active).
In the case of `O=C(Nc1ccc(N2CCCC2)cc1)c1cccc(F)c1`, the IC50 [10] is reported as > 67.5 µM (inactive) and the IC50 (cells [11]) is reported as > 67.5 µM (inactive).
In the case of `Cc1ccc(C2C(C(=O)c3ccc(Br)cc3)=C(O)C(=O)N2Cc2ccco2)o1` (stereo not drawn), the Ki (fMet-Leu-Phe receptor) is reported as > 66.7 µM (inactive), the IC50 (Genome polyprotein) is reported as > 100 µM (active) and the IC50 (Leucine aminopeptidase) is reported as 66.4 µM (active).
With `CN1CCC(=O)N(CCOc2ccccc2)CC1` the IC50 (Nonstructural protein 1) was 18.9 µM (active) and the AC50 [9] was 77.4 µM (active).
With `COc1ccc(CCNC(=O)c2c(C)cc(=O)oc2C)cc1OC` the AC50 [12] was 57.6 µM (active).
With `O=C1CNC(=O)/C1=C/NC12CC3CC(CC(C3)C1)C2` the IC50 [13] was 19.4 µM (inactive).
With `CCN1C(=O)C(CC(=O)Nc2ccc(OC)cc2)N(CCc2ccccc2)C1=S` (stereo not drawn) the IC50 [1] was 38.9 µM (inactive), the IC50 [2] was 23.5 µM (inactive) and the IC50 [3] was 15 µM (inactive).
In the case of `Cc1cc(C2=NN=C(NCCc3ccccc3)SC2)c(C)n1CC1CCCO1` (stereo not drawn), the EC50 [4] is reported as 0.553 µM (active), the EC50 (H4) is reported as 13 µM (active) and the EC50 [14] is reported as 61.9 µM (active). For the same compound, the IC50 [5] was 2.84 µM (active), the EC50 (cells [6]) was > 29.9 µM (inactive) and the IC50 (cells [7]) was > 29.9 µM (inactive).
For `Clc1ccc(Cc2nn3c(-c4ccncc4)nnc3s2)cc1`, the Ki (fMet-Leu-Phe receptor) was > 66.7 µM (inactive).
In the case of `CC(C)OC(=O)c1cc(NC(=O)C2C3CCC(O3)C2C(=O)O)cc(C(=O)OC(C)C)c1` (stereo not drawn), the Ki (fMet-Leu-Phe receptor) is reported as 41.5 µM (inactive).
For `O=c1[nH]cnc2nc(-c3ccc(N(CCCl)CCCl)cc3)[nH]c12`, the IC50 [10] was > 67.6 µM (inactive).
In the case of `Oc1[nH]cnc2nc(-c3ccc(N(CCCl)CCCl)cc3)nc1-2`, the IC50 (cells [11]) is reported as > 67.6 µM (inactive).
With `NC(=O)c1cccc(-c2ccnc3c2CC(C(=O)Nc2ccc(Cl)cc2)O3)c1` (stereo not drawn) the IC50 [1] was 58.1 µM (inactive), the IC50 [2] was 18.7 µM (inactive) and the IC50 [3] was 8.03 µM (active).
In the case of `O=C(Nc1ccn(CCCN2CCN(Cc3ccc(F)cc3)CC2)c(=O)n1)OCc1ccccc1`, the IC50 [13] is reported as 20 µM (inactive).
For `CC[C@]12c3[nH]c4ccc(OC)cc4c3CCN1C(=O)C(CC(=O)NCCCN(C)C)C[C@@H]2C(=O)N1CCN(C(=O)c2ccco2)CC1` (stereo partly drawn), the IC50 [13] was 35.3 µM (inactive).
For `CCCC(=O)N1CCCC(c2cc(C(=O)Nc3ccc4c(c3)OCO4)no2)C1` (stereo not drawn), the IC50 [10] was > 67.6 µM (inactive) and the IC50 (cells [11]) was > 67.6 µM (inactive).
In the case of `CNC[C@@H]1Oc2cc(C#CC3CCCC3)ccc2S(=O)(=O)N([C@@H](C)CO)C[C@@H]1C`, the AC50 [12] is reported as 4.31 µM (active).
With `COC(=O)/C(=C\Nc1ccccc1)NC(=O)c1ccc(Cl)cc1Cl` the IC50 [1] was 83.3 µM (inactive), the IC50 [2] was 6.89 µM (active) and the IC50 [3] was 2.71 µM (active).
